Data published in ChEMBL document CHEMBL5252664, “Orally Active Forms of DMT, 5-MeO-DMT, and Long-Acting MDMA for the Treatment of Neuropsychiatric Disorders” (ACS Med Chem Lett, 2023).

assay: Half life in Sprague-Dawley rat at 10 mg/kg, po; assay type: ADME, organism-based; details: in vivo

Going from `COc1ccc2c(c1)c(CCN(C)C)cn2C(=O)[C@@H](N)C(C)C.Cl.Cl` to `COc1ccc2c(c1)c(CCN(C)C)cn2C(=O)CCCC(C)=O`, the half-life falls from 5.54 h to 2.02 h (2.7-fold).

`C[C@H](N)C(=O)n1cc(CCN(C)C)c2ccccc21.Cl.Cl` and `CN(C)CCc1cn(C(=O)CN(C)C(=O)[C@H](N)Cc2ccccc2)c2ccccc12.Cl.Cl` are within 1.5-fold of each other in half-life: 4.08 h for the first, 3.31 h for the second.

Work on `COc1ccc2c(c1)c(CCN(C)C)cn2C(=O)c1ccccc1` yielded a half-life of 10.3 h.

assay: Tmax in Sprague-Dawley rat at 10 mg/kg, po; assay type: ADME, organism-based; details: in vivo

Compared with `COc1ccc2c(c1)c(CCN(C)C)cn2C(=O)[C@@H](N)C(C)C.Cl.Cl`, `COc1ccc2c(c1)c(CCN(C)C)cn2C(=O)CCCC(C)=O` is 2-fold lower in Tmax: 2 h for the first, 1 h for the second.

`C[C@H](N)C(=O)n1cc(CCN(C)C)c2ccccc21.Cl.Cl` and `CN(C)CCc1cn(C(=O)CN(C)C(=O)[C@H](N)Cc2ccccc2)c2ccccc12.Cl.Cl` are the same in Tmax: 0.5 h for the first, 0.5 h for the second.

In the case of `COc1ccc2c(c1)c(CCN(C)C)cn2C(=O)c1ccccc1`, the Tmax is reported as 1 h.

assay: AUC (0 to last) in Sprague-Dawley rat at 10 mg/kg, po; assay type: ADME, organism-based; parameters: dose 10 mg/kg, route po; details: in vivo

First: COc1ccc2c(c1)c(CCN(C)C)cn2C(=O)[C@@H](N)C(C)C.Cl.Cl
Second: COc1ccc2c(c1)c(CCN(C)C)cn2C(=O)CCCC(C)=O
The AUC(0-t) of the first is 2.3-fold lower: 155 ng·h/mL for the first, 362 ng·h/mL for the second.

Going from `C[C@H](N)C(=O)n1cc(CCN(C)C)c2ccccc21.Cl.Cl` to `CN(C)CCc1cn(C(=O)CN(C)C(=O)[C@H](N)Cc2ccccc2)c2ccccc12.Cl.Cl`, the AUC(0-t) falls from 126 ng·h/mL to 7.17 ng·h/mL (18-fold).

Work on `COc1ccc2c(c1)c(CCN(C)C)cn2C(=O)c1ccccc1` yielded an AUC(0-t) of 66.5 ng·h/mL.

assay: Cmax in Sprague-Dawley rat at 10 mg/kg, po; assay type: ADME, organism-based; parameters: dose 10 mg/kg, route po; details: in vivo

First: COc1ccc2c(c1)c(CCN(C)C)cn2C(=O)[C@@H](N)C(C)C.Cl.Cl
Second: COc1ccc2c(c1)c(CCN(C)C)cn2C(=O)CCCC(C)=O
The Cmax of the first is 9.5-fold lower: 11.1 ng/mL for the first, 106 ng/mL for the second.

First: C[C@H](N)C(=O)n1cc(CCN(C)C)c2ccccc21.Cl.Cl
Second: CN(C)CCc1cn(C(=O)CN(C)C(=O)[C@H](N)Cc2ccccc2)c2ccccc12.Cl.Cl
The Cmax of the first is 8.3-fold higher: 20.2 ng/mL for the first, 2.43 ng/mL for the second.

`COc1ccc2c(c1)c(CCN(C)C)cn2C(=O)c1ccccc1` gave a Cmax of 17.7 ng/mL.
